From patent US11613556B2, “Oxysterols and methods of use thereof” (Sage Therapeutics, Inc., priority 2016, dated 2023)

Target: glutamate-activated channels of the GRIN1/2A subtype stably transfected in HEK 293 cells (Homo sapiens (Human), UniProt Q05586+Q12879)
Assay: Automated patch-clamp system (QPatch HTX), percent potentiation at 1 μM
Format: cell-based
Conditions: HEK293, 1 μM test compound, 300 μM NMDA with 8 μM glycine, HEK 293 GRIN1/2A, read-out: GluN2A PCA % potentiation at 1 μM
Procedure: NMDA potentiation in mammalian cells which expressed NMDA receptors was assessed using the automatic patch-clamp system can be used determine the NAM activity of compounds as described below. An whole cell patch-clamp system can be used determine the PAM activity of compounds as described below.
Automated Patch-Clamp System (OPatch HTX):
In this study, HEK 293 cells stably transfected with glutamate-activated channels of the GRIN1/2A subtype will be used together with submaximal NMDA concentrations (300 μM NMDA, co-application with 8 μM Glycine) to investigate the negative allosteric modulation of the test compounds.
In general, cells will be passaged at a confluence of about 80% to […]. For electrophysiological measurements cells will be harvested at a confluence of about 80% to 90% from sterile culture flasks containing culture complete medium. Cells will be transferred as suspension in PBS to the QPatch 16X or QPatch HTX system to the centrifuge/washer directly.
Standard Laboratory Conditions: Cells will be incubated at 37° C. in a humidified atmosphere with 5% CO2 (rel. humidity about 95%).
Culture media: The cells will be continuously maintained in and passaged in sterile culture flasks containing a 1:1 mixture of Dulbecco's modified eagle medium and nutrient mixture F-12 (D-MEM/F-12 1×, liquid, with L-Glutamine) supplemented with 10% fetal bovine serum, 1% Penicillin/Streptomycin solution, and 50 μM AP-5 blocker.
Antibiotics: The complete medium as indicated above is supplemented with 100 μg/mL hygromycin, 15 μg/mL blasticidin and 1 μg/mL puromycin.
Induction of Expression: 2.5 μg/mL tetracycline is added 24 h before start of experiments.
Dose levels are in terms of test compounds, as supplied. Vehicle will be added to achieve a stock concentration of 10 mM (storage at −10° C. to −30° C.). A further stock solutions of 1.0 mM will be prepared in DMSO. Details of stock solution usage (thawing, dose formulations) will be documented in the raw data. The time period of stock solution usage will be detailed in the report.
Test Compound Concentrations
One test concentration of 1.0 μM will be tested.
All test solutions will be prepared by diluting the stock solutions with either Mg-free bath solution only or Mg-free bath solution containing NMDA (300 μM) and glycine (8.0 μM) shortly prior to the electrophysiological experiments and kept at room temperature (19° C. to 30° C.) when in use. 0.1% DMSO will be used as vehicle.
Frequency of preparation: For each test concentration, fresh solutions of test compounds will be prepared every day.
Stability of dose formulation: All preparation times will be documented in the raw data. Any observations regarding instability of test compounds will be mentioned in the raw data.
Storage of dose formulation: On the day of experimentation dose formulations will be maintained at room temperature (19° C. to 30° C.) when in use.
For preparing the experiments and for formation of the giga-ohm-seal, the following standard bath solution will be used:
Sodium Chloride: 137 mM; Potassium Chloride: 4 mM; Calcium Chloride: 1.8 mM; Magnesium Chloride: 1 mM; HEPES: 10 mM; D-Glucose: 10 mM; Cremophor: 0.02%; pH (NaOH): 7.4
The 1× bath solution will be prepared by diluting 10× bath solution without Glucose and 100× Glucose solution with water at least every 7 days. Both stock solutions have been prepared prior to the experimental start of the present study and stored at 1° C. to 9° C. (10× bath solution) or −10° C. to −30° (100× Glucose solution). The batch number(s) of the bath solution(s) used in the experiments will be documented in the raw data. When in use, the 1× bath solution will be kept at room temperature (19° C. to 30° C.). When not in use, the 1× bath solution will be stored at 1° C. to 9° C.
After the giga-seal was formed the following Mg-free bath solution will be used:
Sodium Chloride: 137 mM; Potassium Chloride: 4 mM; Calcium Chloride; 2.8 mM; HEPES: 10 mM; D-Glucose: 10 mM; Cremophor: 0.02%; pH (NaOH): 7.4 […]

glutamate-activated channels of the GRIN1/2A subtype stably transfected in HEK 293 cells, sequence (Q12879 whole entry, looked up, other chains not shown): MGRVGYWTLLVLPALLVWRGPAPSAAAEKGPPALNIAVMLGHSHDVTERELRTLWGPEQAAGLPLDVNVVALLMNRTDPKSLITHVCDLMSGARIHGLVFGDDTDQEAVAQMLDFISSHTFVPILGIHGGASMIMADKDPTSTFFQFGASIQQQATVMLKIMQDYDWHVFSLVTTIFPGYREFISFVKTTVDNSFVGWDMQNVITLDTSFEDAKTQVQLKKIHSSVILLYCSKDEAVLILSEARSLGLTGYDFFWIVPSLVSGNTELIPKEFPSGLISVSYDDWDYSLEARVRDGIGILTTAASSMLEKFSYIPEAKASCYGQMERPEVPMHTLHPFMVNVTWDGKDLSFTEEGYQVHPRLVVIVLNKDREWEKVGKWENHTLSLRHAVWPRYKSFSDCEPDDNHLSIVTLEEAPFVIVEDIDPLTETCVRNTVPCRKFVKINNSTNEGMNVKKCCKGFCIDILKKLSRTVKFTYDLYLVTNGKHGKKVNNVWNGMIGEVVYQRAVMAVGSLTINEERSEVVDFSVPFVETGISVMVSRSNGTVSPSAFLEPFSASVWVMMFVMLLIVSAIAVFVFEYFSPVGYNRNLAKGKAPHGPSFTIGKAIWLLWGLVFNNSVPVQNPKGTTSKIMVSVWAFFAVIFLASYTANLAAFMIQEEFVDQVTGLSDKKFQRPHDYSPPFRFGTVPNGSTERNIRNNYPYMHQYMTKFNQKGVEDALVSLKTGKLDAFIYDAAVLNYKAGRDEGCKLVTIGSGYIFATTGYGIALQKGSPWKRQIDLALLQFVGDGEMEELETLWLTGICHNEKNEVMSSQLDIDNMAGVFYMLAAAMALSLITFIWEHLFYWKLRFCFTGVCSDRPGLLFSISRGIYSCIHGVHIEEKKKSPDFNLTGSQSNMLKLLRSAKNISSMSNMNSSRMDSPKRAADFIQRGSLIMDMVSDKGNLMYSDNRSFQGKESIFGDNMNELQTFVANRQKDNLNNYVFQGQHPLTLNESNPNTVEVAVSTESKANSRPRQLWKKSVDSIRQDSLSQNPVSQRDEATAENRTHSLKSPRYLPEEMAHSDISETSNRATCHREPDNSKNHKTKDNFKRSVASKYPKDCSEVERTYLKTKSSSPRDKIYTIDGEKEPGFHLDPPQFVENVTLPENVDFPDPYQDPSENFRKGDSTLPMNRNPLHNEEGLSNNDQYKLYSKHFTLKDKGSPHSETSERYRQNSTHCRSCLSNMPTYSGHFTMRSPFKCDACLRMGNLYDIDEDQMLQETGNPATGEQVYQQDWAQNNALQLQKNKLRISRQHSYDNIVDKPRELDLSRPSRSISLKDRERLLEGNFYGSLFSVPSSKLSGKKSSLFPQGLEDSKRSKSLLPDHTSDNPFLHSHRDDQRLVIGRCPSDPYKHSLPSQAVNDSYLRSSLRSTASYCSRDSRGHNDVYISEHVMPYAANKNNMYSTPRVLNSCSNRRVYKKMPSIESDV

Compound | activation at 1 µM [%]
COC[C@]1(O)CC[C@H]2[C@H](CC[C@@H]3[C@@H]2CC[C@]2(C)[C@@H]([C@H](C)[C@H](O)C(F)(F)F)CC[C@@H]32)C1 [Compound 48, (3S,5R,8R,9R,10S,13S,14S,17R)-3-(methoxymethyl)-13-methyl-17-((2S,3S)-4,4,4-trifluoro-3-hydroxybutan-2-yl)hexadecahydro-1H-cyclopenta[a]phenanthren-3-ol] | -40 to -10
CC[C@]1(O)CC[C@@]2(C)[C@@H](CC[C@@H]3[C@@H]2CC[C@]2(C)[C@@H]([C@H](C)[C@H](C)O)CC[C@@H]32)C1 [Compound 50, (3S,5S,8R,9S,10S,13S,14S,17R)-3-ethyl-17-((2S,3S)-3-hydroxybutan-2-yl)-10,13-dimethylhexadecahydro-1H-cyclopenta[a]phenanthren-3-ol] | -40 to -10
C[C@H]([C@@H](O)C(F)(F)F)[C@H]1CC[C@H]2[C@@H]3CC=C4C[C@](O)(C(F)(F)F)CC[C@]4(C)[C@H]3CC[C@]12C [Compound 53, (3S,8S,9S,10R,13S,14S,17R)-10,13-dimethyl-17-((2S,3R)-4,4,4-trifluoro-3-hydroxybutan-2-yl)-3-(trifluoromethyl)-2,3,4,7,8,9,10,11,12,13,14,15,16,17-tetradecahydro-1H-cyclopenta[a]phenanthren-3-ol] | -40 to -10
CC[C@]1(O)CC[C@@]2(C)[C@@H](CC[C@@H]3[C@@H]2CC[C@]2(C)[C@@H]([C@H](C)[C@@H](O)c4ccccc4)CC[C@@H]32)C1 [Compound 55, (3S,5S,8R,9S,10S,13S,14S,17R)-3-ethyl-17-((1R,2S)-1-hydroxy-1-phenylpropan-2-yl)-10,13-dimethylhexadecahydro-1H-cyclopenta[a]phenanthren-3-ol] | -40 to -10
CC[C@]1(O)CC[C@@]2(C)[C@H](CC[C@@H]3[C@@H]2CC[C@]2(C)[C@@H]([C@H](C)[C@H](O)C(F)(F)F)CC[C@@H]32)C1 [Compound 56, (3S,5R,8R,9S,10S,13S,14S,17R)-3-ethyl-10,13-dimethyl-17-((2S,3S)-4,4,4-trifluoro-3-hydroxybutan-2-yl)hexadecahydro-1H-cyclopenta[a]phenanthren-3-ol] | < -40
C[C@H]([C@@H](O)C(F)(F)F)[C@H]1CC[C@H]2[C@@H]3CC[C@@H]4C[C@@](C)(O)CC[C@]4(C)[C@H]3CC[C@]12C [Compound 57, (3S,5R,8R,9S,10S,13S,14S,17R)-3,10,13-trimethyl-17-((2S,3R)-4,4,4-trifluoro-3-hydroxybutan-2-yl)hexadecahydro-1H-cyclopenta[a]phenanthren-3-ol] | < -40
CC[C@]1(O)CC[C@@]2(C)[C@@H](CC[C@@H]3[C@@H]2CC[C@]2(C)[C@@H]([C@H](C)[C@H](O)C4CCCC4)CC[C@@H]32)C1 [Compound 58, (3S,5S,8R,9S,10S,13S,14S,17R)-17-((1R,2S)-1-cyclopentyl-1-hydroxypropan-2-yl)-3-ethyl-10,13-dimethylhexadecahydro-1H-cyclopenta[a]phenanthren-3-ol] | -40 to -10
CC[C@]1(O)CC[C@@]2(C)C(=CC[C@H]3[C@@H]4CC[C@H]([C@H](C)[C@@H](O)C(F)(F)F)[C@@]4(C)CC[C@@H]32)C1 [Compound 62, (3S,8S,9S,10R,13S,14S,17R)-3-ethyl-10,13-dimethyl-17-((2S,3R)-4,4,4-trifluoro-3-hydroxybutan-2-yl)-2,3,4,7,8,9,10,11,12,13,14,15,16,17-tetradecahydro-1H-cyclopenta[a]phenanthren-3-ol] | -40 to -10
CC[C@]1(O)CC[C@@]2(C)[C@H](CC[C@@H]3[C@@H]2CC[C@]2(C)[C@@H]([C@H](C)[C@@H](O)CCC(C)C)CC[C@@H]32)C1 [Compound 64, (3S,5R,8R,9S,10S,13S,14S,17R)-3-ethyl-17-((2S,3S)-3-hydroxy-6-methylheptan-2-yl)-10,13-dimethylhexadecahydro-1H-cyclopenta[a]phenanthren-3-ol] | -40 to -10
CC[C@]1(O)CC[C@@]2(C)[C@@H](CC[C@@H]3[C@@H]2CC[C@]2(C)[C@@H]([C@H](C)[C@@H](O)C(C)C)CC[C@@H]32)C1 [Compound 65, (3S,5S,8R,9S,10S,13S,14S,17R)-3-ethyl-17-((2S,3S)-3-hydroxy-4-methylpentan-2-yl)-10,13-dimethylhexadecahydro-1H-cyclopenta[a]phenanthren-3-ol] | -40 to -10
CC[C@]1(O)CC[C@@]2(C)C(=CC[C@H]3[C@@H]4CC[C@H]([C@H](C)[C@@H](O)CC5(C)COC5)[C@@]4(C)CC[C@@H]32)C1 [Compound 70, (3S,8S,9S,10R,13S,14S,17R)-3-ethyl-17-((2S,3S)-3-hydroxy-4-(3-methyloxetan-3-yl)butan-2-yl)-10,13-dimethyl-2,3,4,7,8,9,10,11,12,13,14,15,16,17-tetradecahydro-1H-cyclopenta[a]phenanthren-3-ol] | -40 to -10
COC[C@]1(O)CC[C@@]2(C)[C@H](CC[C@@H]3[C@@H]2CC[C@]2(C)[C@@H]([C@H](C)[C@H](O)C(F)(F)F)CC[C@@H]32)C1 [Compound 71, (3S,5R,8R,9S,10S,13S,14S,17R)-3-(methoxymethyl)-10,13-dimethyl-17-((2S,3S)-4,4,4-trifluoro-3-hydroxybutan-2-yl)hexadecahydro-1H-cyclopenta[a]phenanthren-3-ol] | -40 to -10
CC(C)CC[C@H](O)[C@@H](C)[C@H]1CC[C@H]2[C@@H]3CC[C@H]4C[C@@](C)(O)CC[C@@H]4[C@H]3CC[C@]12C [Compound 74, (3S,5S,8R,9R,10S,13S,14S,17R)-17-((2S,3S)-3-hydroxy-6-methylheptan-2-yl)-3,13-dimethylhexadecahydro-1H-cyclopenta[a]phenanthren-3-ol] | -40 to -10
CC(C)CC[C@H](O)[C@@H](C)[C@H]1CC[C@H]2[C@@H]3CC=C4C[C@@](C)(O)CC[C@@H]4[C@H]3CC[C@]12C [Compound 80, (3S,8R,9S,10R,13S,14S,17R)-17-((2S,3S)-3-hydroxy-6-methylheptan-2-yl)-3,13-dimethyl-2,3,4,7,8,9,10,11,12,13,14,15,16,17-tetradecahydro-1H-cyclopenta[a]phenanthren-3-ol] | -40 to -10
CC[C@]1(O)CC[C@@]2(C)C(=CC[C@H]3[C@@H]4CC[C@H]([C@H](C)[C@H](O)C(F)(F)F)[C@@]4(C)CC[C@@H]32)C1 [Compound 81, (3S,8S,9S,10R,13S,14S,17R)-3-ethyl-10,13-dimethyl-17-((2S,3S)-4,4,4-trifluoro-3-hydroxybutan-2-yl)-2,3,4,7,8,9,10,11,12,13,14,15,16,17-tetradecahydro-1H-cyclopenta[a]phenanthren-3-ol] | -40 to -10
CC(C)CC[C@@H](O)[C@@H](C)[C@H]1CC[C@H]2[C@@H]3CC=C4C[C@@](C)(O)CC[C@@H]4[C@H]3CC[C@]12C [Compound 83, (3S,8R,9S,10R,13S,14S,17R)-17-((2S,3R)-3-hydroxy-6-methylheptan-2-yl)-3,13-dimethyl-2,3,4,7,8,9,10,11,12,13,14,15,16,17-tetradecahydro-1H-cyclopenta[a]phenanthren-3-ol] | -40 to -10
